Results taken from patent US12018016B2, “Aryl sulfonyl (hydroxy) piperidines as CCR6 inhibitors” (CHEMOCENTRYX, INC., priority 2021, dated 2024).

molecular target: T1, human CCR6 (Homo sapiens, UniProt P51684); assay: Migration assay (chemotaxis, ChemoTX); assay type: cell-based; conditions: hCCR6-transfected Ba/F3 cells in human serum, migration to recombinant human CCL20 10 nM, 37° C. 45 minutes; read-out: Potency (IC50 value in the migration assay)
T1 construct: expressed in transfected cells; host or cells: Ba/F3 cells (mouse pro-B line)
T1 sequence (P51684 1-374): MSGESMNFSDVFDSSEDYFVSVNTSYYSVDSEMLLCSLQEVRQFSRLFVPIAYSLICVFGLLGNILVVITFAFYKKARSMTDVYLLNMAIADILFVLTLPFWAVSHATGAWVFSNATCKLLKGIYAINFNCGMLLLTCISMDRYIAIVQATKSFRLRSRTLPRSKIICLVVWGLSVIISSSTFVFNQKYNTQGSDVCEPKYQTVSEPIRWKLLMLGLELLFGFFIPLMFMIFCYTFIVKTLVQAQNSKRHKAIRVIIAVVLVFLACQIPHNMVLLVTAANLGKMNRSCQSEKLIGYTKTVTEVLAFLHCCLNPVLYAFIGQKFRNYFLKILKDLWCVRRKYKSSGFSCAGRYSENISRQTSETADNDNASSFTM
How it was run: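 Ba/F3 cells transfected with human CCR6 and butyrate-primed for 24 h were suspended at 4 million/ml in human serum with compound, serially diluted from a 1 μM final top concentration. Cells migrated through a 5-μm polycarbonate membrane toward 10 nM human CCL20 for 45 min at 37 °C. Migrated cells were quantified by CyQUANT fluorescence.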

Compound	IC50
COc1cnccc1-c1ccc(S(=O)(=O)N2CC[C@@H](Nc3ccc(C(F)(F)F)cn3)[C@@H](O)C2)cc1 [Compound 151]	1 to 10 nM
CN(C)[C@H]1C[C@H](Nc2ccc(-c3ccc(S(=O)(=O)N4CC[C@@H](Nc5ccc(C(F)(F)F)cn5)[C@@H](O)C4)cc3)cn2)C1 [Compound 91]	1 to 10 nM
N#Cc1n[nH]c2c(F)cc(-c3ccc(S(=O)(=O)N4CC[C@@H](Nc5ccc(C(F)(F)F)cn5)[C@@H](O)C4)cc3)cc12 [Compound 77, 7-fluoro-5-(4-(((3S,4R)-3-hydroxy-4-((5-(trifluoromethyl)pyridin-2-yl)amino)piperidin-1-yl)sulfonyl)phenyl)-1H-indazole-3-carbonitrile]	< 1 nM
Cc1cc(C(F)(F)F)cnc1N[C@@H]1CCN(S(=O)(=O)c2ccc(-c3ccnc(C(N)=O)c3)cc2)C[C@@H]1O [Compound 82, 4-[4-[[(3S,4R)-3-hydroxy-4-[[3-methyl-5-(trifluoromethyl)-2-pyridyl]amino]-1-piperidyl]sulfonyl]phenyl]pyridine-2-carboxamide]	< 1 nM
NC(=O)c1cc(-c2ccc(S(=O)(=O)N3CC[C@@H](Nc4ccc(C(F)(F)F)cn4)[C@@H](O)C3)cc2)cc(O)n1 [Compound 203]	< 1 nM
Nc1cncc(-c2ccc(S(=O)(=O)N3CC[C@@H](Nc4ccc(C(F)(F)F)cn4)[C@@H](O)C3)cc2)c1 [Compound 110]	< 1 nM
COc1cc(-c2ccc(S(=O)(=O)N3CC[C@@H](Nc4ccc(C(F)(F)F)cn4)[C@@H](O)C3)cc2)cc(C(N)=O)n1 [Example 44, 4-(4-(((3S,4R)-3-Hydroxy-4-((5-(trifluoromethyl)pyridin-2-yl)amino)piperidin-1-yl)sulfonyl)phenyl)-6-methoxypicolinamide]	< 1 nM
Cc1cnc(C#N)c(C)c1-c1ccc(S(=O)(=O)N2CC[C@@H](Nc3ccc(C(F)(F)F)cn3)[C@@H](O)C2)cc1 [Compound 75, 4-(4-(((3S,4R)-3-hydroxy-4-((5-(trifluoromethyl)pyridin-2-yl)amino)piperidin-1-yl)sulfonyl)phenyl)-3,5-dimethylpicolinonitrile]	< 1 nM
Cc1nc2[nH]ccc2cc1-c1ccc(S(=O)(=O)N2CC[C@@H](Nc3ccc(C(F)(F)F)cn3)[C@@H](O)C2)cc1 [Example 17, (3S,4R)-1-((4-(6-methyl-1H-pyrrolo[2,3-b]pyridin-5-yl)phenyl)sulfonyl)-4-((5-(trifluoromethyl)pyridin-2-yl)amino)piperidin-3-ol]	1 to 10 nM
Nc1nnc2ccc(-c3ccc(S(=O)(=O)N4CC[C@@H](Nc5ccc(C(F)(F)F)cn5)[C@@H](O)C4)cc3)cn12 [Example 13, (3S,4R)-1-((4-(3-amino-[1,2,4]triazolo[4,3-a]pyridin-6-yl)phenyl)sulfonyl)-4-((5-(trifluoromethyl)pyridin-2-yl)amino)piperidin-3-ol]	< 1 nM

Second part, the compound after the results:

IC50	Compound
< 1 nM	O=c1[nH]ncc2ccc(-c3ccc(S(=O)(=O)N4CC[C@@H](Nc5ccc(C(F)(F)F)cn5)[C@@H](O)C4)cc3)cc12 [Compound 180]
< 1 nM	O=C1NCC[C@@H]1Nc1ccc(-c2ccc(S(=O)(=O)N3CC[C@@H](Nc4ccc(C(F)(F)F)cn4)[C@@H](O)C3)cc2)cn1 [Compound 170]
1 to 10 nM	O=S(=O)(c1ccc(-c2cncc(N3CCNCC3)c2)cc1)N1CC[C@@H](Nc2ccc(C(F)(F)F)cn2)[C@@H](O)C1 [Compound 76, (3S,4R)-1-((4-(5-(piperazin-1-yl)pyridin-3-yl)phenyl)sulfonyl)-4-((5-(trifluoromethyl)pyridin-2-yl)amino)piperidin-3-ol]
< 1 nM	O=S(=O)(c1ccc(-c2ccnc(N3CCCCC3)c2)cc1)N1CC[C@@H](Nc2ccc(C(F)(F)F)cn2)[C@@H](O)C1 [Compound 145]
< 1 nM	O=c1[nH]c2ccc(-c3ccc(S(=O)(=O)N4CC[C@@H](Nc5ccc(C(F)(F)F)cn5)[C@@H](O)C4)cc3)cc2[nH]1 [Example 47, 5-(4-(((3S,4R)-3-hydroxy-4-((5-(trifluoromethyl)pyridin-2-yl)amino)piperidin-1-yl)sulfonyl)phenyl)-1,3-dihydro-2H-benzo[d]imidazol-2-one]
1 to 10 nM	NC(=O)Cc1cc(-c2ccc(S(=O)(=O)N3CC[C@@H](Nc4ccc(C(F)(F)F)cn4)[C@@H](O)C3)cc2)ccn1 [Compound 207]
< 1 nM	Nc1ccc(-c2ccc(S(=O)(=O)N3CC[C@@H](Nc4ccc(C(F)(F)F)cn4)[C@@H](O)C3)cc2)cn1 [Compound 160]
< 1 nM	O=S(=O)(c1ccc(-c2ccc(N3CCCC3)nc2)cc1)N1CC[C@@H](Nc2ccc(C(F)(F)F)cn2)[C@@H](O)C1 [Compound 172]
< 1 nM	O=C1CN(c2cc(-c3ccc(S(=O)(=O)N4CC[C@@H](Nc5ccc(C(F)(F)F)cn5)[C@@H](O)C4)cc3)ccn2)CCN1 [Compound 173]
< 1 nM	O=S(=O)(c1ccc(-c2ccc(N3CC(O)C3)nc2)cc1)N1CC[C@@H](Nc2ccc(C(F)(F)F)cn2)[C@@H](O)C1 [Compound 174]
< 1 nM	O=C1C[C@H](Nc2ccc(-c3ccc(S(=O)(=O)N4CC[C@@H](Nc5ccc(C(F)(F)F)cn5)[C@@H](O)C4)cc3)cn2)CN1 [Compound 167]
< 1 nM	O=S(=O)(c1ccc(-c2ccnc(N3CC4(COC4)C3)c2)cc1)N1CC[C@@H](Nc2ccc(C(F)(F)F)cn2)[C@@H](O)C1 [Compound 135]
< 1 nM	NC(=O)c1ccc(-c2ccc(S(=O)(=O)N3CC[C@@H](Nc4ccc(C(F)(F)F)cn4)[C@@H](O)C3)cc2)cn1 [Example 28, 5-(4-(((3S,4R)-3-Hydroxy-4-((5-(trifluoromethyl)pyridin-2-yl)amino)piperidin-1-yl)sulfonyl)phenyl)picolinamide]
< 1 nM	O=S(=O)(c1ccc(-c2ccc3[nH]ncc3c2)cc1)N1CC[C@@H](Nc2ccc(C(F)(F)F)cn2)[C@@H](O)C1 [Example 23, (3S,4R)-1-((4-(1H-indazol-5-yl)phenyl)sulfonyl)-4-((5-(trifluoromethyl)pyridin-2-yl)amino)piperidin-3-ol]
